# From patent US5212165A, “Method for rehabilitating the vasorelaxant action of the coronary arteries impaired through atherosclerosis or hypercholesterolemia employing an ACE inhibitor” (E. R. Squibb & Sons, Inc., priority 1989, dated 1993)
# “Also recorded” adds a separate entry of the source.
# Assays:
# [1] = tested on: alpha-adrenoceptor (isolated iliac arteries); assay: Contractile responses to phenylephrine of isolated iliac arteries from cynomolgus monkeys; parameters: species or system cynomolgus (Macaca fascicularis) monkeys
# From the text: (§1) Twenty-four male cynomolgus (Macaca fascicularis) monkeys were divided into four groups of six animals each. During the course of the study, one of the control monkeys was sacrificed due to ill health unrelated to the study. Each group was fed a different diet for six months. The control group ate a normal diet of monkey biscuit. The cholesterol group ate a specially formulated monkey diet containing cholesterol. The cholesterol +low captopril group ate the cholesterol diet supplemented with captopril (50 mg/kg divided into two daily doses). The cholesterol+high captopril group ate the cholesterol diet and a higher total dose of captopril (100 mg/kg divided into two daily doses).
# (§2) The monkeys were sedated with an intramuscular injection of ketamine (10 mg/kg), then anesthetized with pentobarbital (25 mg/kg). The iliac arteries were carefully dissected, cleaned of surrounding connective tissue, and refrigerated overnight for use the following day.
# (§3) On the day of the experiment, three iliac rings (3 mm wide) from each animal were cut and mounted for isometric force recording. Each ring was attached to a micrometer for the control of muscle length and to a Grass FT.03 force transducer and Grass 7D recorder. The rings were placed in warm (37° C.), oxygenated, physiological salt solution (PSS) of the following composition (in mM): 140.0 NaCl, 4.7 KCl, 1.2 MgSO4, 1.6 CaCl2, 1.2 NaH2 PO4, 5.6 D-glucose, 2.0 2-(N-morpholino)propanesulfonic acid (MOPS, pH 7.4 at 37° C.), and 0.02 Na2 -ethylenediaminetetraacetic acid (EDTA). The rings were stretched to a preload of 5 g during a 2 hour equilibration period, then stimulated with 1 μM phenylephrine to test for viability and relaxed with 100 nM acetylcholine to test for endothelial function. Stock solutions of phenylphrine, acetylcholine, propranolol, and sodium nitroprusside were prepared daily in water; nifedipine stock solutions were prepared daily in ethanol.
# (§4) Alpha-adrenoceptor and endothelial cell function were examined in the third ring from each monkey. In the presence of 0.1 μM propranolol, a cumulative concentration-response curve to phenylephrine was obtained, then the phenylephrine was washed out of the baths and the rings were allowed to relax completely. The rings were subsequently contracted with an EC50 concentration of phenylephrine (1 μM) and, following stabilization of the contraction, the rings were treated with increasing concentrations of acetylcholine, followed by 100 nM sodium nitroprusside.
# (§5) Data are presented as mean±SEM. The IC50 and EC50 values were estimated by linearly interpolating from the concentration-response curves. The EC50 values for each ring were used to determine the means for each treatment group.
# Phenylephrine concentration-response curves were obtained in iliac rings from all groups of monkeys.
# [2] = tested on: phenylephrine-contracted isolated iliac arteries; assay: Acetylcholine-induced relaxation of phenylephrine-contracted isolated iliac arteries from cynomolgus monkeys; parameters: species or system cynomolgus (Macaca fascicularis) monkeys; conditions: for maximum force generated in response to phenylephrine (before acetylcholine): mean±SEM
# From the text: as §1, §2, §3, §4, §5
# For each monkey, the EC50 for acetylcholine relaxation was calculated by linearly interpolating from the concentration-response curves. When 50% relaxation was not achieved, the value of the EC50 was set to 30 μM a value larger than any of the experimental concentrations of acetylcholine).
# Linear contrast of mean ranks in the groups were constructed with a variance estimate for the contrast based on the Kruskal-Wallis statistic (Dunn 1964).
# In the analyses, the following coefficients were employed: i) for an overall test, the coefficients were 3 for the cholesterol group, 1 for the control group, -1 for the cholesterol+low captopril group, and -3 for the cholesterol+high captopril group, based on prior expectations of likely results; ii) for a test of the cholesterol effect, the coefficients were 1 for the cholesterol group, -1 for the control group, 0 for the cholestrol+low captopril group, and 0 for the cholesterol+high captopril group; iii) for a test of the captopril effect, the coefficients were 0 for the cholesterol group, 1 for the […], 0 for the cholesterol+low captopril group, and -1 for the cholesterol+high captopril group.
# All statistical results reported are based on one-sided tests. […]
# rat aortic rings = conditions: Hartich et al, Shultz et al, cited from earlier work
# [3] = tested on: bovine aortic endothelial cells; conditions: cited from earlier work
# isolated rat hearts = conditions: van Gilst et al; cited from earlier work
# [4] = tested on: vascular relaxation in response to EN-D (ACh) and EN-I (Na nitroprusside) agonists; conditions: oral; rats; cited from earlier work
# guinea pig or rat lungs = conditions: guinea pig lungs; cited from earlier work
# [5] = tested on: patients with Raynaud's phenomenon; conditions: cited from earlier work
smiles,measurement,setting,value
"C[C@H](CS)C(=O)N1CCC[C@H]1C(=O)O [captopril, 1-[(2S)-3-mercapto-2-methylpropionyl]-L-proline]",Max Force (phenylephrine-induced contraction),"[1]; Cholesterol + High Captopril (100 mg/kg daily, six months), Mean ± SEM",19.2 ± 2.2 g
same,Max Force (phenylephrine-induced contraction),"[1]; Cholesterol + Low Captopril (50 mg/kg daily, six months), Mean ± SEM",18.4 ± 2.8 g
same,EC50 at 100 mg/kg,"[1]; Macaca fascicularis, Cholesterol + High Captopril (100 mg/kg daily, six months), Mean ± SEM, read-out: EC50 (phenylephrine-induced contraction)",1300 ± 600 nM
same,EC50 at 50 mg/kg,"[1]; Macaca fascicularis, Cholesterol + Low Captopril (50 mg/kg daily, six months), Mean ± SEM, read-out: EC50 (phenylephrine-induced contraction)",1000 ± 200 nM
same,effect on in vitro response of iliac arteries to phenylephrine,"[1]; cholesterol-fed monkeys, with captopril",neither cholesterol nor captopril affected
same,EC50 at 100 mg/kg,"[2]; Macaca fascicularis, Cholesterol + High Captopril (100 mg/kg daily, six months), N 5, non-responder excluded, Mean ± SEM",100 ± 10 nM
same,endothelium-dependent vasorelaxant effects,[2]; arteries from hypercholesterolemic and atherosclerotic monkeys,enhance endothelium-dependent vasorelaxant effects
same,shift of EC50 concentration for acetylcholine,[2]; captopril as compared with cholesterol alone,statistically significant effect of captopril as compared with cholesterol; also recorded: significantly shifted the EC50 concentration for acetylcholine to the left
same,rings not showing 50% relaxation in response to acetylcholine,[2]; cholesterol diet and low dose captopril,One ring did not show 50% relaxation
same,iliac rings responsive to acetylcholine,"[2]; cholesterol fed, high daily dose of captopril, six animals",Five of the iliac rings
same,maximum force generated in response to phenylephrine (before acetylcholine),"[2]; cholesterol+high captopril group, non-responders excluded",11.9 ± 2.1 g
same,maximum force generated in response to phenylephrine (before acetylcholine),[2]; cholesterol+low captopril group,12.4 ± 2.2 g
same,potency and efficacy of acetylcholine in iliac rings from cholesterol-fed monkeys which received captopril,[2]; vs cholesterol diet without captopril,significantly more potent and efficacious
same,endothelium dependent relaxation of normal rat aortic rings,rat aortic rings; in vitro,enhance endothelium dependent relaxation
same,effect of acetylcholine in rat aortic rings after captopril feeding alone,rat aortic rings; without cholesterol,potentiate the effects of acetylcholine
same,release of prostacyclin or EDRF induced by bradykinin,[3]; captopril 10 mu.K (so in the source),did not affect the release
same,release of EDRF (direct),[3],ineffective as releasers of EDRF
same,coronary vasodilatory mechanism,isolated rat hearts,potentiates the effect of locally increased BK
same,vascular relaxations in response to EN-D (ACh) and EN-I (Na nitroprusside) agonists,[4],differentially affected vascular relaxations
same,effect on removal of endothelin by guinea pig lungs,guinea pig or rat lungs,without being affected by captopril
same,marked subjective improvement,"[5]; 20 patients with primary or secondary Raynaud's phenomenon, Trubestein et al",14 cases
same,incidence or severity of peripheral vasospasm,"[5]; Raynaud's with hypertension secondary to scleroderma, Coffman",does not decrease the incidence or severity of peripheral vasospasm
same,digital circulation,"[5]; one patient, Miyazaki et al",improved a patient's digital circulation
same,benefit in Raynaud's phenomenon and chronic leg ulceration,"[5]; one patient, Rustin et al 1989",no benefit
same,cutaneous blood flow,"[5]; p.o., 15 patients, placebo-controlled, double-blind cross-over, Rustin et al 1987",significantly improved cutaneous blood flow
same,frequency or severity of attacks,"[5]; p.o., 15 patients, Rustin et al 1987",no effect on frequency or severity of attacks
same,frequency and severity of ischemic attacks,"[5]; patients with Raynaud's disease, Tosi et al",significantly decreased the frequency and the severity of ischemic attacks
same,ischemic attacks in patients with scleroderma,"[5]; patients with scleroderma, Tosi et al",did not affect the attacks
